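A five-concentration, 48-hour dose response in 96-well plates underlies each endpoint, interpolated linearly between surrounding concentrations. At the GI50, growth is halved.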 The source made the active and inactive calls. No stated cut-off is given here; in the data, active = GI50 up to about 1.1 µM and inactive = higher.
Legend:
Assay in all cases: inhibition of tumour cell growth, NCI panel, 48 h
[1] = system: SR
[2] = system: KM12
[3] = system: SNB-19
[4] = system: HT-29
[5] = system: NCI-H460
[6] = system: PC-3
[7] = system: MDA-MB-435
[8] = system: Malme-3M
[9] = system: SF-539
[10] = system: SK-MEL-2
[11] = system: MDA-N
[12] = system: HCT-116
[13] = system: TK-10
[14] = system: A549
[15] = system: HCC 2998
[16] = system: EKVX
[17] = system: UACC-257
[18] = system: IGROV-1
[19] = system: Hs-578T
[20] = system: OVCAR-4
[21] = system: BT-549
[22] = system: HL-60
[23] = system: HOP-92
[24] = system: RXF 393
[25] = system: MDA-MB-231
[26] = system: OVCAR-5
[27] = system: SW-620
[28] = system: SF-295
[29] = system: COLO 205
[30] = system: DU-145
[31] = system: RPMI-8226
[32] = system: A498
[33] = system: HCT-15
[34] = system: HOP-62
[35] = system: NCI-H23
[36] = system: ACHN
[37] = system: SF-268
[38] = system: NCI-H522
[39] = system: NCI-H226
[40] = system: MOLT-4
[41] = system: MCF7
[42] = system: SK-MEL-28
[43] = system: K562
[44] = system: 786-0
[45] = system: NCI/ADR-RES
[46] = system: LOX IMVI
[47] = system: UACC-62
[48] = system: U-251
[49] = system: OVCAR-8
[50] = system: SN12C
[51] = system: OVCAR-3
[52] = system: CAKI-1
[53] = system: SK-MEL-5
[54] = system: M14
[55] = system: UO-31
[56] = system: SNB-75
[57] = system: SK-OV-3
[58] = system: CCRF-CEM

C/C(NC(=O)c1ccccc1)=C(/C(=O)c1ccccc1)[C@@H]1OC(C)(C)O[C@@H]1[C@H]1COC(C)(C)O1
GI50 [1]: 19.5 µM (inactive)
GI50 [2]: 28.6 µM (inactive)
GI50 [3]: 46.2 µM (inactive)
GI50 [4]: 27 µM (inactive)
GI50 [5]: 20.7 µM (inactive)
GI50 [6]: 30.4 µM (inactive)
GI50 [7]: 19.5 µM (inactive)
GI50 [8]: 37.6 µM (inactive)
GI50 [9]: 54 µM (inactive)
GI50 [10]: 23.3 µM (inactive)
GI50 [11]: 18.6 µM (inactive)
GI50 [12]: 19.5 µM (inactive)
GI50 [13]: 77.6 µM (inactive)
GI50 [14]: 29.9 µM (inactive)
GI50 [15]: 23.9 µM (inactive)
GI50 [16]: 16.4 µM (inactive)
GI50 [17]: 30.8 µM (inactive)
GI50 [18]: 13.2 µM (inactive)
GI50 [19]: 27 µM (inactive)
GI50 [20]: 27.6 µM (inactive)
GI50 [21]: 25.8 µM (inactive)
GI50 [22]: 16 µM (inactive)
GI50 [23]: 19.4 µM (inactive)
GI50 [24]: 30.2 µM (inactive)
GI50 [25]: 23.7 µM (inactive)
GI50 [26]: 34.4 µM (inactive)
GI50 [27]: 20.3 µM (inactive)
GI50 [28]: 30.9 µM (inactive)
GI50 [29]: 22.3 µM (inactive)
GI50 [30]: 44.7 µM (inactive)
GI50 [31]: 14.9 µM (inactive)
GI50 [32]: 86.1 µM (inactive)
GI50 [33]: 32.8 µM
GI50 [34]: 33.1 µM (inactive)
GI50 [35]: 22.9 µM (inactive)
GI50 [36]: 67.3 µM (inactive)
GI50 [37]: 35.6 µM (inactive)
GI50 [38]: 17.6 µM (inactive)
GI50 [39]: 33 µM (inactive)
GI50 [40]: 15.5 µM (inactive)
GI50 [41]: 40.8 µM (inactive)
GI50 [42]: 52.4 µM (inactive)
GI50 [43]: 20.9 µM (inactive)
GI50 [44]: 18.3 µM (inactive)
GI50 [45]: 27.7 µM (inactive)
GI50 [46]: 19.9 µM (inactive)
GI50 [47]: 39.4 µM (inactive)
GI50 [48]: 30.9 µM (inactive)
GI50 [49]: 29.2 µM (inactive)
GI50 [50]: 25.2 µM (inactive)
GI50 [51]: 32.9 µM (inactive)
GI50 [52]: 29.3 µM (inactive)
GI50 [53]: 16.3 µM (inactive)
GI50 [54]: 30.8 µM (inactive)
GI50 [55]: 15.5 µM (inactive)

N#Cc1nc(C2CCC(=O)O2)oc1N (stereo not drawn)
GI50 [1]: > 100 µM (inactive)
GI50 [2]: > 100 µM (inactive)
GI50 [3]: > 100 µM (inactive)
GI50 [4]: > 100 µM (inactive)
GI50 [5]: > 100 µM (inactive)
GI50 [6]: > 100 µM (inactive)
GI50 [7]: > 100 µM (inactive)
GI50 [56]: 29 µM (inactive)
GI50 [8]: 13.4 µM (inactive)
GI50 [9]: > 100 µM (inactive)
GI50 [10]: > 100 µM (inactive)
GI50 [11]: > 100 µM (inactive)
GI50 [12]: 83 µM (inactive)
GI50 [13]: > 100 µM (inactive)
GI50 [16]: > 100 µM (inactive)
GI50 [17]: > 100 µM (inactive)
GI50 [18]: > 100 µM (inactive)
GI50 [19]: > 100 µM (inactive)
GI50 [21]: > 100 µM (inactive)
GI50 [22]: > 100 µM (inactive)
GI50 [24]: > 100 µM (inactive)
GI50 [25]: > 100 µM (inactive)
GI50 [26]: > 100 µM (inactive)
GI50 [27]: > 100 µM (inactive)
GI50 [57]: > 100 µM (inactive)
GI50 [28]: > 100 µM (inactive)
GI50 [29]: > 100 µM (inactive)
GI50 [30]: > 100 µM (inactive)
GI50 [31]: > 100 µM (inactive)
GI50 [32]: > 100 µM (inactive)
GI50 [33]: > 100 µM
GI50 [34]: > 100 µM (inactive)
GI50 [35]: > 100 µM (inactive)
GI50 [36]: > 100 µM (inactive)
GI50 [37]: > 100 µM (inactive)
GI50 [39]: > 100 µM (inactive)
GI50 [40]: > 100 µM (inactive)
GI50 [58]: > 100 µM (inactive)
GI50 [41]: > 100 µM (inactive)
GI50 [42]: > 100 µM (inactive)
GI50 [43]: > 100 µM (inactive)
GI50 [44]: > 100 µM (inactive)
GI50 [45]: > 100 µM (inactive)
GI50 [46]: 72.9 µM (inactive)
GI50 [47]: > 100 µM (inactive)
GI50 [48]: > 100 µM (inactive)
GI50 [49]: > 100 µM (inactive)
GI50 [50]: > 100 µM (inactive)
GI50 [51]: > 100 µM (inactive)
GI50 [52]: > 100 µM (inactive)
GI50 [53]: > 100 µM (inactive)
GI50 [54]: > 100 µM (inactive)
GI50 [55]: > 100 µM (inactive)

From ChEMBL document CHEMBL1201862, “PubChem BioAssay data set” (2004)
